Laboratory results taken from article PMC8611036, “An integrated method for optimized identification of effective natural inhibitors against SARS-CoV-2 3CLpro” (Scientific Reports, 2021).
Non-standard residues stand in square brackets, D forms with d. Residues, ends and D or L forms follow the SMILES beside them. 2Thi = N[C@@H](Cc1cccs1)C(=O)O; Cha = N[C@@H](CC1CCCCC1)C(=O)O

Test system: SARS-CoV 3CLpro
Format: biochemical
Details: not given

Row | Compound | Inact.(<6)/Act.(>=6)
1 | COC(=O)[C@]1(C)CC[C@]2(C)CC[C@]3(C)C4=CC=C5C(=CC(=O)C(O)=C5C)[C@]4(C)CC[C@@]3(C)[C@@H]2C1 [CMP128] | Inact. (key: Inact.(<6); Act.(>=6))

Same assay, conditions: activity class by pIC50 threshold 6

Row | Compound | Inact.(<6)/Act.(>=6)
2 | O=C[C@H](Cc1cnc[nH]1)NC[C@@H]1C[C@H]2CCCC[C@@H]2CN1C(=O)c1ccc(Br)cc1 [CMP256] | Inact. (Inact.(<6))
3 | CC(=O)Oc1cc2c(cc1C(C)C)CC[C@H]1[C@](C)(CO)CCC[C@]21C [CMP207] | Inact. (Inact.(<6))
4 | CC(=O)N[C@@H](CO)C(=O)N[C@H](C(=O)N[C@@H](CC1CCCCC1)C(=O)N[C@H](C=O)Cc1c[nH]cn1)C(C)C [CMP218] (Ac-SV[Cha]H-aldehyde) | Act. (Act.(>=6))
5 | O=C[C@H](Cc1cnc[nH]1)NC[C@@H]1C[C@H]2CCCC[C@@H]2CN1C(=O)c1ccc(-c2ccccc2)cc1 [CMP259] | Inact. (Inact.(<6))
6 | O=C[C@H](Cc1c[nH]cn1)NC[C@H]1C[C@@H]2CCCC[C@H]2CN1C(=O)c1ccc(Br)cc1 [CMP263] | Inact. (Inact.(<6))
7 | Cc1nc(C)c(C(=O)C2=C(O)C(=O)N(CCCN3CCOCC3)C2c2cccc([N+](=O)[O-])c2)s1 (centres unmarked) [CMP289] | Inact. (Inact.(<6))
8 | O=C(Oc1cncc(Cl)c1)c1ccc(-c2ccc(Cl)cc2)o1 [CMP277] | Act. (Act.(>=6))
9 | CC1CCN(S(=O)(=O)c2ccc3c(c2)C(=O)C(=O)N3Cc2ccc3ccccc3c2)CC1 [CMP249] | Inact. (Inact.(<6))
10 | CC(C)(C)NC(=O)C(c1ccnnc1)N(C(=O)c1ccco1)c1ccc(C(C)(C)C)cc1 (centres unmarked) [CMP203] | Inact. (Inact.(<6))
11 | CC1CC(C)CN(S(=O)(=O)c2ccc3c(c2)C(=O)C(=O)N3Cc2ccccc2)C1 (centres unmarked) [CMP251] | Inact. (Inact.(<6))
12 | O=C[C@H](Cc1cnc[nH]1)NC[C@H]1C[C@@H]2CCCC[C@H]2CN1C(=O)c1ccc(-c2ccccc2)cc1 [CMP257] | Inact. (Inact.(<6))
13 | CC(=O)n1nc(SSc2ccccc2[N+](=O)[O-])nc1-c1cccnc1 [CMP272] | Inact. (Inact.(<6))
14 | CN1C(=O)C(=O)c2cc(S(=O)(=O)N3CCN(c4ccccn4)CC3)ccc21 [CMP245] | Inact. (Inact.(<6))
15 | CCC(C)(C)NC(=O)[C@@H](c1ccn(C)c1)N(C(=O)Cn1nnc2ccccc21)c1ccc(NC(C)=O)cc1 [CMP254] | Inact. (Inact.(<6))
16 | CN1C(=O)C(=O)c2cc(S(=O)(=O)N3CCN(CCc4ccccc4)CC3)ccc21 [CMP244] | Inact. (Inact.(<6))
17 | O=C(Oc1cncc(Cl)c1)c1cccc([N+](=O)[O-])c1 [CMP275] | Act. (Act.(>=6))
18 | COc1cc(/C=C/C(=O)/C=C(O)/C=C/c2ccc(O)c(OC)c2)ccc1O [CMP156] | Inact. (Inact.(<6))
19 | CN1CCN(S(=O)(=O)c2ccc3c(c2)C(=O)C(=O)N3Cc2ccc3ccccc3c2)CC1 [CMP243] | Inact. (Inact.(<6))
20 | Cc1cc(S(=O)(=O)c2c([N+](=O)[O-])cc(C(F)(F)F)cc2[N+](=O)[O-])c(Cl)cc1Cl [CMP288] | Act. (Act.(>=6))
21 | CC1CC(C)CN(S(=O)(=O)c2ccc3c(c2)C(=O)C(=O)N3C)C1 (centres unmarked) [CMP250] | Inact. (Inact.(<6))
22 | COc1cc(CN2CCN(S(=O)(=O)c3ccc4c(c3)C(=O)C(=O)N4)CC2)cc(OC)c1OC [CMP236] | Inact. (Inact.(<6))
23 | CCC(=O)Nc1ccc(N(Cc2ccsc2)C(=O)Cn2nnc3ccccc32)cc1 [CMP220] | Inact. (Inact.(<6))
24 | O=C1Nc2ccc(S(=O)(=O)N3CCN(Cc4cccc(Cl)c4)CC3)cc2C1=O [CMP235] | Inact. (Inact.(<6))
25 | COCCC(=O)Nc1ccc(N(C(=O)Cn2nnc3ccccc32)C(C)c2ccsc2)cc1 (centres unmarked) [CMP252] | Inact. (Inact.(<6))

Row | Compound | Inact.(<6)/Act.(>=6)
26 | CC(C)c1cc2c(cc1O)[C@@]1(C)CCC[C@@](C)(C=O)[C@@H]1CC2 [CMP208] | Inact. (Inact.(<6))
27 | CC(C)C[C@H](NC(=O)[C@@H](NC(=O)[C@H](C)NC(=O)OC(C)(C)C)C(C)C)C(=O)N[C@H](C#N)CCC(N)=O [CMP229] | Inact. (Inact.(<6))
28 | Cc1cc(C(=O)N[C@@H](C)C(=O)N[C@H](C(=O)N[C@@H](CC(C)C)C(=O)N[C@H](C#N)CCC(N)=O)C(C)C)no1 [CMP228] | Inact. (Inact.(<6))
29 | O=C[C@H](Cc1c[nH]cn1)NC[C@@H]1C[C@H]2CCCC[C@@H]2CN1C(=O)c1ccccc1 [CMP262] | Inact. (Inact.(<6))
30 | Cc1cc(C)nc(SSc2ccccc2[N+](=O)[O-])n1 [CMP274] | Act. (Act.(>=6))
31 | CC1CCN(S(=O)(=O)c2ccc3c(c2)C(=O)C(=O)N3Cc2ccccc2)CC1 [CMP248] | Inact. (Inact.(<6))
32 | CC(=O)Nc1ccc(N(C(=O)Cn2cc(-c3ccccc3)nn2)C(C(=O)NC(C)(C)C)c2ccsc2)cc1 (centres unmarked) [CMP210] | Inact. (Inact.(<6))
33 | COC(=O)c1ccccc1SSc1nc(C(=O)OC)c(C)[nH]1 [CMP265] | Inact. (Inact.(<6))
34 | O=C[C@H](Cc1c[nH]cn1)NC[C@@H]1C[C@H]2CCCC[C@@H]2CN1C(=O)c1cccc(-c2ccccc2)c1 [CMP260] | Inact. (Inact.(<6))
35 | CC(=O)Nc1cnc(SSc2ccc(Br)cc2)s1 [CMP23, reference compound] | Inact. (Inact.(<6))
36 | O=C(Cn1nnc2ccccc21)N(Cc1ccsc1)c1ccc(NCc2ccccc2)cc1 [CMP221] | Inact. (Inact.(<6))
37 | O=C1Nc2ccc(S(=O)(=O)N3CCN(c4ccccn4)CC3)cc2C1=O [CMP239] | Inact. (Inact.(<6))
38 | CC(C)(C)NC(=O)C(c1cccnc1)N(C(=O)c1cnco1)c1ccc(C(C)(C)C)cc1 (centres unmarked) [CMP188] | Inact. (Inact.(<6))
39 | O=C(Oc1cncc(Cl)c1)c1cccnc1 [CMP172] | Act. (Act.(>=6))
40 | COC(=O)c1nc(SSc2ccc(Cl)cc2)[nH]c1C [CMP268] | Inact. (Inact.(<6))
41 | CC(C)C(=O)Nc1ccc(N(Cc2ccsc2)C(=O)Cn2nnc3ccccc32)cc1 [CMP198] | Inact. (Inact.(<6))
42 | CN1CCN(S(=O)(=O)c2ccc3c(c2)C(=O)C(=O)N3C)CC1 [CMP241] | Inact. (Inact.(<6))
43 | Cc1ccc(C(=O)N/C(=C\c2ccc(-c3cccc([N+](=O)[O-])c3)o2)C(=O)NCCCN(C)C)cc1 [CMP283] | Inact. (Inact.(<6))
44 | Cc1coc2c1C(=O)C(=O)c1c-2ccc2c(C)cccc12 [CMP127] | Inact. (Inact.(<6))
45 | Cc1csc(SSc2ccccc2[N+](=O)[O-])n1 [CMP267] | Inact. (Inact.(<6))
46 | CC(C)c1cc2c(cc1O)[C@@]1(C)CC[C@H](O)C(C)(C)[C@@H]1CC2 [CMP163] | Inact. (Inact.(<6))
47 | O=C(Oc1cncc(Cl)c1)c1ccc(-c2cccc([N+](=O)[O-])c2)o1 [CMP278] | Act. (Act.(>=6))
48 | CC(C)(C)NC(=O)C(c1cccnc1)N(C(=O)c1ccc(Cl)o1)c1ccc(C(C)(C)C)cc1 (centres unmarked) [CMP201] | Inact. (Inact.(<6))
49 | CC(=O)N[C@@H](CC(N)=O)C(=O)N[C@H](C(=O)N[C@@H](CC1CCCCC1)C(=O)N[C@H](C=O)Cc1c[nH]cn1)C(C)C [CMP217] (Ac-NV[Cha]H-aldehyde) | Inact. (Inact.(<6))

Row | Compound | Inact.(<6)/Act.(>=6)
50 | O=C(Oc1cncc(Br)c1)c1cccs1 [CMP232] | Act. (Act.(>=6))
51 | O=C(Cn1nnc2ccccc21)N(Cc1ccsc1)c1ccc(-c2cccnc2)cc1 [CMP224] | Act. (Act.(>=6))
52 | C=C(CCSc1ccccc1NC(=O)/C=C/c1ccccc1)OC [CMP107] | Inact. (Inact.(<6))
53 | COc1ccc2c(c1)CCC1C2=NN(C(C)=O)C1c1cccc(I)c1 (centres unmarked) [CMP116] | Inact. (Inact.(<6))
54 | CCOC(=O)c1ccccc1SSc1nc(C(=O)OC)c(C)[nH]1 [CMP264] | Inact. (Inact.(<6))
55 | O=C(Nc1ccc(N(Cc2ccsc2)C(=O)Cn2nnc3ccccc32)cc1)C1CC1 [CMP195] | Inact. (Inact.(<6))
56 | C=C1CC[C@H]2[C@](C)(CO)CCC[C@]2(C)[C@H]1CC/C(C)=C\CO [CMP209] | Inact. (Inact.(<6))
57 | CC(C)(C)NC(=O)C(c1cnccn1)N(C(=O)c1ccco1)c1ccc(C(C)(C)C)cc1 (centres unmarked) [CMP204] | Inact. (Inact.(<6))
58 | O=[N+]([O-])c1cc(C(F)(F)F)ccc1S(=O)(=O)c1ccc(Cl)cc1 [CMP287] | Inact. (Inact.(<6))
59 | O=C1Nc2ccc(S(=O)(=O)N3CCN(C(=O)c4ccco4)CC3)cc2C1=O [CMP238] | Inact. (Inact.(<6))
60 | CC(C)(C)NC(=O)C(c1ccsc1)N(C(=O)Cn1nnc2ccccc21)c1ccc(NC(=O)C2CC2)cc1 (centres unmarked) [CMP191] | Inact. (Inact.(<6))
61 | O=C(Oc1cncc(Cl)c1)c1ccccc1[N+](=O)[O-] [CMP279] | Act. (Act.(>=6))
62 | O=C(Oc1cncc(Cl)c1)c1ccncc1 [CMP167] | Act. (Act.(>=6))
63 | O=C[C@H](Cc1c[nH]cn1)NC[C@@H]1C[C@H]2CCCC[C@@H]2CN1C(=O)c1ccccc1-c1ccccc1 [CMP261] | Inact. (Inact.(<6))
64 | COc1cccc(C(=O)Oc2cncc(Cl)c2)c1 [CMP171] | Act. (Act.(>=6))
65 | O=C1Nc2ccc(S(=O)(=O)N3CCN(CCc4ccccc4)CC3)cc2C1=O [CMP237] | Inact. (Inact.(<6))
66 | O=C1C(=O)N(Cc2ccc3ccccc3c2)c2ccc(S(=O)(=O)N3CCOCC3)cc21 [CMP246] | Inact. (Inact.(<6))
67 | CC(=O)Nc1cnc(SSc2ccccc2[N+](=O)[O-])s1 [CMP271] | Inact. (Inact.(<6))
68 | CC(=O)N[C@@H](CO)C(=O)N[C@@H](C)C(=O)N[C@H](C(=O)N[C@@H](CC(C)C)C(=O)N[C@H](C=O)Cc1cccs1)C(C)C [CMP216] (Ac-SAVL[2Thi]-aldehyde) | Inact. (Inact.(<6))
69 | CC1CC(C)CN(S(=O)(=O)c2ccc3c(c2)C(=O)C(=O)N3)C1 (centres unmarked) [CMP255] | Inact. (Inact.(<6))
70 | O=C(Cn1nnc2ccccc21)N(Cc1ccsc1)c1ccc(-c2ccncc2)cc1 [CMP226] | Inact. (Inact.(<6))
71 | COC(=O)/C=C/[C@H](C[C@@H]1CCNC1=O)NC(=O)[C@H](CC(C)C)NC(=O)[C@@H](NC(=O)OCc1ccccc1)C(C)C [CMP253] | Inact. (Inact.(<6))
